Assay results from patent US6984754B1, “Aliphatic amino carboxylic and amino phosphonic acids amino nitriles and amino tetrazoles as cellular rescue agents” (University of Saskatchewan Technologies Inc., priority 1998, dated 2006).
Structures can show the parent of a compound that is named as a salt.

How the values were obtained:
[1] = test system: cerebellar granule cells (CGC); assay: Antiapoptotic capacity (rescue) in cerebellar granule cells induced into apoptosis by cytosine arabinoside (CGC assay); assay type: cell-based, Wistar rat; details: for Rescue by Amino Tetrazoles in the CGC Assay, Rescue (overall yes/no) / Rescue by Amino Acids and Esters in the CGC Assay, Rescue (overall yes/no) / Rescue by Amino Nitriles in the CGC Assay, Rescue (overall yes/no) / Rescue by Amino Phosphonic Acids in the CGC Assay, Rescue (overall yes/no): overall over 10^−6, 10^−9, 10^−12 M
Excerpt: In Vitro Protocol for Assessing the Antiapoptotic Capacity of Various Compounds in Cerebellar Granule Cells
Cultures of cerebellar granule cells (CGC) can be induced into apoptosis by the addition of a high concentration of cytosine arabinoside (AraC). It has been shown that this is a p53 dependent apoptosis. We have measured the antiapoptotic effect of some amino acids, amino esters, amino phosphonic acids, amino nitriles and amino tetrazoles using this system.
Cultures of CGC were obtained from 6-8 day old Wistar rat pups. Cultures were grown on glass in 35 mm petri dishes for three days and then used for experiments. Aliquots (20 ul) of drug solutions (AraC, anti-apoptotic drugs, drug vehicles) were added to the medium of the culture. 24 Hours later the cultures were fixed with FAM, and stained with bis-benzamide. Normal and apoptotic nuclei were counted to a total of 90-120 cells per culture.

[2] = compound 10^−6 M, AraC 300 uM-induced apoptosis, 24 hours
[3] = compound 10^−9 M, AraC 300 uM-induced apoptosis, 24 hours
[4] = compound 10^−12 M, AraC 300 uM-induced apoptosis, 24 hours

Q: Which melting point does the source give for `CCOC(=O)CNC(C)C` (as salt: hydrochloride) here?
A: 120 to 121 °C

Q: With `CCCCC[C@H](C)NCCC(=O)OC` (stereo in doubt) (as salt: hydrochloride) as the compound, how does the melting point read?
A: 89.5 to 90.5 °C

Q: With `CCCCCC(C)NCCC(=O)O` (stereo in doubt) (as salt: hydrochloride) [R-2-Heptyl (B-Alanines), (R)-3-(2-Heptylamino)propionic acid hydrochloride] as the compound, how does the melting point read?
A: 57 to 58 °C

Q: With `CCCCCC(C)NCCC#N` (stereo in doubt) (as salt: hydrochloride) [R-2-Heptyl (Propionitriles), (R)-3-(2-Heptylamino)propionitrile hydrochloride] as the compound, how does the melting point read?
A: 134 to 135 °C

Q: With `CCCCCC(C)N(C)CCC#N` (stereo in doubt) (as salt: hydrochloride) [R-2-Heptyl-N-methyl (Propionitriles), (R)-3-(2-Heptylmethylamino)propionitrile hydrochloride] as the compound, how does the melting point read?
A: 98 to 98.5 °C

Q: Which melting point does the source give for `CCCCCC(C)NCC#N` (stereo in doubt) (as salt: hydrochloride) [R-2-heptyl (Acetonitriles), (R)-2-(2-Heptylamino)acetonitrile hydrochloride] here?
A: 152 to 153 °C

Q: For `CCCCCC(C)NCCc1nnn[nH]1` (stereo in doubt) [R-2-Heptyl (Amino Tetrazoles), (R)-2-(2-Heptylamino)ethane-5-tetrazole hydrochloride], which “Rescue by Amino Tetrazoles in the CGC Assay, 10^−6 M” value [1, 2] is on record?
A: R

Q: What about the “Rescue by Amino Tetrazoles in the CGC Assay, 10^−9 M” value [1, 3] of the same compound?
A: R

Q: What about the “Rescue by Amino Tetrazoles in the CGC Assay, 10^−12 M” value [1, 4] of the same compound?
A: R

Q: And the “Rescue by Amino Tetrazoles in the CGC Assay, Rescue (overall yes/no)” value [1]?
A: yes

Q: Which “Rescue by Amino Acids and Esters in the CGC Assay, 10^−9 M” value [1, 3] does the source give for `CCCCCC(C)NCCC(=O)O` (stereo in doubt) [R-2-Heptyl (B-Alanines), (R)-3-(2-Heptylamino)propionic acid hydrochloride] here?
A: R

Q: And the “Rescue by Amino Acids and Esters in the CGC Assay, 10^−12 M” value [1, 4]?
A: R

Q: What about the “Rescue by Amino Acids and Esters in the CGC Assay, Rescue (overall yes/no)” value [1] of the same compound?
A: yes

Q: Which “Rescue by Amino Acids and Esters in the CGC Assay, Rescue (overall yes/no)” value [1] does the source give for `CCCCCC(C)NCC(=O)O` (stereo in doubt) [R-2-Heptyl (Glycines), (R)-2-(2-Heptylamino)acetic acid hydrochloride] here?
A: no

Q: What does the source list for `CCCCCC(C)NCCC#N` (stereo in doubt) [R-2-Heptyl (Propionitriles), (R)-3-(2-Heptylamino)propionitrile hydrochloride]?
A: Rescue by Amino Nitriles in the CGC Assay, 10^−9 M [1, 3]: R; Rescue by Amino Nitriles in the CGC Assay, 10^−12 M [1, 4]: R; Rescue by Amino Nitriles in the CGC Assay, Rescue (overall yes/no) [1]: yes

Q: What does the source list for `CCCCCC(C)N(C)CCC#N` (stereo in doubt) [R-2-Heptyl-N-methyl (Propionitriles), (R)-3-(2-Heptylmethylamino)propionitrile hydrochloride]?
A: Rescue by Amino Nitriles in the CGC Assay, 10^−9 M [1, 3]: R; Rescue by Amino Nitriles in the CGC Assay, Rescue (overall yes/no) [1]: yes

Q: For `CCCCCC(C)NCC#N` (stereo in doubt) [R-2-heptyl (Acetonitriles), (R)-2-(2-Heptylamino)acetonitrile hydrochloride], which “Rescue by Amino Nitriles in the CGC Assay, Rescue (overall yes/no)” value (“Rescue by Amino Nitriles … (overall yes/no)” for short) [1] is on record?
A: no

Q: What does the source list for `CCCCCCNCC#N.Cl` [1-Hexyl (Acetonitriles), 2-(1-Hexylamino)acetonitrile hydrochloride]?
A: Rescue by Amino Nitriles in the CGC Assay, 10^−9 M [1, 3]: R; Rescue by Amino Nitriles in the CGC Assay, 10^−12 M [1, 4]: R; Rescue by Amino Nitriles in the CGC Assay, Rescue (overall yes/no) [1]: yes

Q: Which “Rescue by Amino Phosphonic Acids in the CGC Assay, Rescue (overall yes/no)” value [1] does the source give for `CCCCCCNCCP(=O)(O)O.Cl` [1-Hexyl (Amino Phosphonic Acids), 2-(1-Hexylamino)ethanephosphonic acid hydrochloride] here?
A: no

Q: Which “Rescue by Amino Acids and Esters in the CGC Assay, 10^−9 M” value [1, 3] does the source give for `CCCCCCNCCC(=O)OC` [1-Hexyl (B-Alaninates), Methyl 3-(1-hexylamino)propionate hydrochloride] here?
A: R

Q: What about the “Rescue by Amino Acids and Esters in the CGC Assay, 10^−12 M” value [1, 4] of the same compound?
A: R

Q: What about the “Rescue by Amino Acids and Esters in the CGC Assay, Rescue (overall yes/no)” value [1] of the same compound?
A: yes

Q: For `CCCCCCNCCC(=O)O` [1-Hexyl (B-Alanines), 3(1-Hexylamino)propionic acid], which “Rescue by Amino Acids and Esters in the CGC Assay, 10^−6 M” value [1, 2] is on record?
A: R

Q: What about the “Rescue by Amino Acids and Esters in the CGC Assay, 10^−9 M” value [1, 3] of the same compound?
A: R

Q: And the “Rescue by Amino Acids and Esters in the CGC Assay, 10^−12 M” value [1, 4]?
A: R

Q: And the “Rescue by Amino Acids and Esters in the CGC Assay, Rescue (overall yes/no)” value [1]?
A: yes

Q: And the melting point?
A: 95 to 97 °C

Q: With `CCCCCCNCC(=O)O.Cl` [1-Hexyl (Glycines), 2-(1-Hexylamino)acetic acid hydrochloride] as the compound, how does the “Rescue by Amino Acids and Esters in the CGC Assay, 10^−9 M” value [1, 3] read?
A: R

Q: And the “Rescue by Amino Acids and Esters in the CGC Assay, Rescue (overall yes/no)” value [1]?
A: yes

Q: For `CCCCCCNCCC#N.Cl` [1-Hexyl (Propionitriles), 3-(1-Hexylamino)propionitrile hydrochloride], which “Rescue by Amino Nitriles … (overall yes/no)” value [1] is on record?
A: no

Q: What about the melting point of the same compound?
A: 188 to 189 °C

Q: Which “Rescue by Amino Nitriles in the CGC Assay, 10^−6 M” value [1, 2] does the source give for `CC(C)NCC#N.Cl` [2-Propyl (Acetonitriles), 2-(2-Propylamino)acetonitrile hydrochloride] here?
A: R

Q: What about the “Rescue by Amino Nitriles in the CGC Assay, 10^−9 M” value [1, 3] of the same compound?
A: R

Q: And the “Rescue by Amino Nitriles in the CGC Assay, 10^−12 M” value [1, 4]?
A: R

Q: And the “Rescue by Amino Nitriles … (overall yes/no)” value [1]?
A: yes

Q: And the melting point?
A: 166 to 167 °C

Q: What does the source list for `CC(C)NCCP(=O)(O)O.Cl` [2-Propyl (Amino Phosphonic Acids), 2-(2-Propylamino)ethanephosphonic acid hydrochloride]?
A: Rescue by Amino Phosphonic Acids in the CGC Assay, 10^−6 M [1, 2]: R; Rescue by Amino Phosphonic Acids in the CGC Assay, 10^−9 M [1, 3]: R; Rescue by Amino Phosphonic Acids in the CGC Assay, 10^−12 M [1, 4]: R; Rescue by Amino Phosphonic Acids in the CGC Assay, Rescue (overall yes/no) [1]: yes; melting point: 164 to 166 °C

Q: Which “Rescue by Amino Acids and Esters in the CGC Assay, Rescue (overall yes/no)” value [1] does the source give for `COC(=O)CCNC(C)C.Cl` [2-Propyl (B-Alaninates), Methyl 3-(2-propylamino)propionate hydrochloride] here?
A: no

Q: What does the source list for `CC(C)NCCC(=O)O.Cl` [2-Propyl (B-Alanines), 3-(2-Propylamino)propionic acid hydrochloride]?
A: Rescue by Amino Acids and Esters in the CGC Assay, 10^−9 M [1, 3]: R; Rescue by Amino Acids and Esters in the CGC Assay, 10^−12 M [1, 4]: R; Rescue by Amino Acids and Esters in the CGC Assay, Rescue (overall yes/no) [1]: yes; melting point: 154 to 155 °C

Q: What does the source list for `CC(C)NCC(=O)O.Cl` [2-Propyl (Glycines), 2-(2-Propylamino)acetic acid hydrochloride]?
A: Rescue by Amino Acids and Esters in the CGC Assay, 10^−6 M [1, 2]: R; Rescue by Amino Acids and Esters in the CGC Assay, Rescue (overall yes/no) [1]: yes

Q: For `CC(C)NCCC#N.Cl` [2-Propyl (Propionitriles), 3-(2-Propylamino)propionitrile hydrochloride], which “Rescue by Amino Nitriles … (overall yes/no)” value [1] is on record?
A: no

Q: Which “Rescue by Amino Acids and Esters in the CGC Assay, 10^−6 M” value [1, 2] does the source give for `CC(C)N(C)CCC(=O)O` [2-Propyl-N-methyl (B-Alanines), 3-(2-Propylmethylamino)propionic acid] here?
A: R

Q: What about the “Rescue by Amino Acids and Esters in the CGC Assay, 10^−9 M” value [1, 3] of the same compound?
A: R

Q: What about the “Rescue by Amino Acids and Esters in the CGC Assay, Rescue (overall yes/no)” value [1] of the same compound?
A: yes

Q: With `CC(C)N(C)CCC#N.Cl` [2-Propyl-N-methyl (Propionitriles), 3-(2-Propylmethylamino)propionitrile hydrochloride] as the compound, how does the “Rescue by Amino Nitriles … (overall yes/no)” value [1] read?
A: no

Q: What about the melting point of the same compound?
A: 121 to 121.5 °C

Q: Which results are given for `CCC(CC)NCCC#N.Cl` [3-Pentyl (Propionitriles), 3-(3-Pentylamino)propionitrile hydrochloride]?
A: Rescue by Amino Nitriles in the CGC Assay, 10^−6 M [1, 2]: R; Rescue by Amino Nitriles in the CGC Assay, 10^−9 M [1, 3]: R; Rescue by Amino Nitriles in the CGC Assay, Rescue (overall yes/no) [1]: yes; melting point: 118.5 to 119.5 °C

Q: Which “Rescue by Amino Phosphonic Acids in the CGC Assay, Rescue (overall yes/no)” value [1] does the source give for `CCCCC[C@@H](C)NCCP(=O)(O)O.Cl` [R-2-Heptyl (Amino Phosphonic Acids), (R)-2-(2-Heptylamino)ethanephosphonic acid hydrochloride] here?
A: yes*

Q: For `CCCCC[C@@H](C)N(C)CCC(=O)OC.Cl` [R-2-Heptyl-N-methyl (B-Alaninates), (R)-Methyl 3-(2-heptylmethylamino)propionate hydrochloride], which “Rescue by Amino Acids and Esters in the CGC Assay, 10^−6 M” value [1, 2] is on record?
A: R

Q: What about the “Rescue by Amino Acids and Esters in the CGC Assay, 10^−9 M” value [1, 3] of the same compound?
A: R

Q: And the “Rescue by Amino Acids and Esters in the CGC Assay, 10^−12 M” value [1, 4]?
A: R

Q: And the “Rescue by Amino Acids and Esters in the CGC Assay, Rescue (overall yes/no)” value [1]?
A: yes

Q: Which results are given for `CCCCC[C@@H](C)N(C)CCC(=O)O.Cl` [R-2-Heptyl-N-methyl (B-Alanines), (R)-3-(2-Heptylmethylamino)propionic acid hydrochloride]?
A: Rescue by Amino Acids and Esters in the CGC Assay, 10^−6 M [1, 2]: R; Rescue by Amino Acids and Esters in the CGC Assay, 10^−9 M [1, 3]: R; Rescue by Amino Acids and Esters in the CGC Assay, 10^−12 M [1, 4]: R; Rescue by Amino Acids and Esters in the CGC Assay, Rescue (overall yes/no) [1]: yes

Q: For `CCC[C@@H](C)NCC#N` [R-2-Pentyl (Acetonitriles), (R)-2-(2-Pentylamino)acetonitrile], which “Rescue by Amino Nitriles in the CGC Assay, 10^−9 M” value [1, 3] is on record?
A: R

Q: And the “Rescue by Amino Nitriles … (overall yes/no)” value [1]?
A: yes

Q: For `CCC[C@@H](C)NCCP(=O)(O)O` [R-2-Pentyl (Amino Phosphonic Acids), (R)-2-(2-Pentylamino)ethanephosphonic acid], which “Rescue by Amino Phosphonic Acids in the CGC Assay, 10^−6 M” value [1, 2] is on record?
A: R

Q: And the “Rescue by Amino Phosphonic Acids in the CGC Assay, Rescue (overall yes/no)” value [1]?
A: yes

Q: Which “Rescue by Amino Phosphonic Acids in the CGC Assay, 10^−9 M” value [1, 3] does the source give for `CCCCC[C@H](C)NCCP(=O)(O)O.Cl` [S-2-Heptyl (Amino Phosphonic Acids), (S)-2-(2-Heptylamino)ethanephosphonic acid hydrochloride] here?
A: R

Q: What about the “Rescue by Amino Phosphonic Acids in the CGC Assay, 10^−12 M” value [1, 4] of the same compound?
A: R

Q: What about the “Rescue by Amino Phosphonic Acids in the CGC Assay, Rescue (overall yes/no)” value [1] of the same compound?
A: yes

Q: Which “Rescue by Amino Acids and Esters in the CGC Assay, 10^−6 M” value [1, 2] does the source give for `CCCCC[C@H](C)NCC(=O)O.Cl` [S-2-Heptyl (Glycines), (S)-2-(2-Heptylamino)acetic acid hydrochloride] here?
A: R

Q: And the “Rescue by Amino Acids and Esters in the CGC Assay, 10^−9 M” value [1, 3]?
A: R

Q: What about the “Rescue by Amino Acids and Esters in the CGC Assay, 10^−12 M” value [1, 4] of the same compound?
A: R

Q: And the “Rescue by Amino Acids and Esters in the CGC Assay, Rescue (overall yes/no)” value [1]?
A: yes

Q: With “(S)-2-(2-Heptylamino)ethane-5-tetrazole hydrochloride [S-2-Heptyl (Amino Tetrazoles)]” as the compound, how does the “Rescue by Amino Tetrazoles in the CGC Assay, Rescue (overall yes/no)” value [1] read?
A: no
